Patent US11583568B2, “Methods for administering angiotensin II” (La Jolla Pharma, LLC, priority 2017, dated 2023)
Like-named read-outs stand apart in the source and are kept apart here.

Columns and labels:
[1] = cited from earlier work
[2] = tested on: patients suffering from hypotension; assay: 28-day survival of hypotensive patients given angiotensin II or placebo, by baseline Ang I:Ang II ratio; type: in vivo, human
Method: The ratio of blood concentration of angiotensin I to blood concentration of angiotensin II in patients suffering from hypotension was determined and the patients were administered Angiotensin II or a placebo and their survival monitored for 28 days. In general, a low ratio of blood concentration of angiotensin I to blood concentration of angiotensin II (relative high ANG2 state) is protective across the patient population in multivariate analysis. When assessed by tertile, patients with a low ratio of blood concentration of angiotensin I to blood concentration of angiotensin II had better outcomes as assessed by a 28-day all-cause mortality as compared to high ratio of blood concentration of angiotensin I to blood concentration of angiotensin II (K-M survival curves, FIGS. 1 to 4). […] See also Table I and Table II.

For CC[C@H](C)[C@H](NC(=O)[C@H](Cc1ccc(O)cc1)NC(=O)[C@@H](N)C(C)C)C(=O)N[C@@H](Cc1cnc[nH]1)C(=O)N1CCC[C@H]1C(=O)N[C@@H](Cc1ccccc1)C(=O)O [Angiotensin IV, Val-Tyr-Ile-His-Pro-Phe], which “Activity relative to angiotensin II” value ([1]; in words) is on record?
The value was “less activity than angiotensin II”.

Which “Activity relative to angiotensin II” value ([1]; of the activity of angiotensin II) does the source give for “Arg-Val-Tyr-Ile-His-Pro-Phe (RVYIHPF; printed: Arg-Val-Tyr-Ile-His-Pro-Phe) [Angiotensin III]” here?
The value was “approximately 40%”.

For “angiotensin II (DRVYIHPF; printed: Asp-Arg-Val-Tyr-Ile-His-Pro-Phe) [LJPC-501, text says patients were administered Angiotensin II or a placebo]”, which “Mortality at Day 28, Estimate (95% CI)” value ([2]; Baseline Ang I:Ang II ratio <1.63, n = 70) is on record?
The value was 41.6% (31.0%-54.0%).

What about the “Mortality at Day 28, Estimate (95% CI)” value ([2]; Baseline Ang I:Ang II ratio ≥1.63, n = 72) of the same compound?
Its value is 50.0% (39.1%-62.0%).

And the “Survival of patients with elevated Ang I:Ang II ratio” value ([2]; Elevated ratio patients given angiotensin II, compared with patients with a lower ratio)?
The value was “survival becomes comparable to patients who display a lower angiotensin I to angiotensin II ratio”.

And the “Treatment effect on 28-day all-cause mortality compared to control” value ([2]; Patients with the highest Ang I:Ang II ratio (relative low ANG2 state))?
Its value is “large treatment effect compared to control”.

What about the “HR for mortality at Day 28, within treatment group” value ([2]; Within treatment group, baseline Ang I:Ang II ratio <1.63 vs ≥1.63) of the same compound?
Its value is 0.80.
